Test results reported in patent US20230167127A1, “COMPOUNDS AND THEIR USE IN THE TREATMENT OF BACTERIAL INFECTION” (Hoffmann-La Roche Inc., priority 2020, published 2023).
Counter-ions that a name gives are not always drawn.

These molecules were tested on Escherichia coli ATCC 25922 (assay: 50% growth inhibitory concentration (IC50) determination, Iso-Sensitest broth dilution). Conditions: Escherichia coli, ATCC25922, 16 h, strain Escherichia coli ATCC 25922; 10-point broth dilution, optical density at 600 nm over 16 h; read-out: Escherichia coli growth inhibition IC50.
Assay type: cell-based
How it was run: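 Growth was tracked as optical density at 600 nm every 20 minutes for 16 h at 35±2° C. Compounds from DMSO stocks were serially diluted twofold over 10 points (e.g. 50–0.097 μM final) in Iso-Sensitest broth. Inhibition computed in log-phase growth to give IC50.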

Row | Compound | IC50 [nM]
1 | Cc1c(F)cnc2c1CC(CNCCC1CN(c3cnc4c(n3)NC(=O)CO4)C(=O)O1)C2 (stereo not shown) [Example 299, 6-[5-[2-[(3-fluoro-4-methyl-6,7-dihydro-5H-cyclopenta[b]pyridin-6-yl)methylamino]ethyl]-2-oxo-1,3-oxazolidin-3-yl]-4H-pyrazino[2,3-b][1,4]oxazin-3-one] | < 97.7
2 | CC(C)(N)COc1cc(F)c2c(c1)CC(CNCC[C@@H]1CN(c3cnc4c(n3)NC(=O)CO4)C(=O)O1)C2 (stereo partly drawn) [Example 342, 6-[(5R)-5-[2-[[6-(2-amino-2-methylpropoxy)-4-fluoro-2,3-dihydro-1H-inden-2-yl]methylamino]ethyl]-2-oxo-1,3-oxazolidin-3-yl]-4H-pyrazino[2,3-b][1,4]oxazin-3-one; formic acid] | 180
3 | CN(C)CCOc1cc(F)c2c(c1)CC(CNCCC1CN(c3ccc4c(n3)NC(=O)CO4)C(=O)O1)C2 (stereo not shown) [Example 271, 6-[5-[2-[[6-[2-(Dimethylamino)ethoxy]-4-fluoro-2,3-dihydro-1H-inden-2-yl]methylamino]ethyl]-2-oxo-1,3-oxazolidin-3-yl]-4H-pyrido[3,2-b][1,4]oxazin-3-one; formic acid] | < 97.7
4 | NC1c2cccc(Cl)c2CC1CNCCc1cn(-c2cnc3c(n2)NC(=O)CO3)c(=O)o1 (racemic) [Example 359, 6-[5-[2-[(rac-1,2-trans-1-amino-4-chloro-2,3-dihydro-1H-inden-2-yl)methylamino]ethyl]-2-oxo-1,3-oxazol-3-yl]-4H-pyrazino[2,3-b][1,4]oxazin-3-one; formic acid] | < 97.7
5 | Cc1nc(C)c2c(c1C)CC(CNCCC1CN(c3cnc4c(n3)NC(=O)CO4)C(=O)O1)C2 (stereo not shown) [Example 269, 6-[2-Oxo-5-[2-[(1,3,4-trimethyl-6,7-dihydro-5H-cyclopenta[c]pyridin-6-yl)methylamino]ethyl]-1,3-oxazolidin-3-yl]-4H-pyrazino[2,3-b][1,4]oxazin-3-one] | < 97.7
6 | COCCNCCOc1nc(C)c2c(c1C)CC(CNCCC1CN(c3ccc4c(n3)NC(=O)CO4)C(=O)O1)C2 (stereo not shown) [Example 202, 6-[5-[2-[[3-[2-(2-methoxyethylamino)ethoxy]-1,4-dimethyl-6,7-dihydro-5H-cyclopenta[c]pyridin-6-yl]methylamino]ethyl]-2-oxo-1,3-oxazolidin-3-yl]-4H-pyrido[3,2-b][1,4]oxazin-3-one] | 135
7 | Cc1ncc(F)c2c1CC(CN[C@H]1C[C@@H](C3CN(c4cnc5c(n4)NC(=O)CO5)C(=O)O3)C1)C2 (stereo partly shown) [Example 362] | 157
8 | Cc1nc(OCC2CNC2)c(C)c2c1CC(CNCCC1CN(c3ccc4c(n3)NC(=O)CO4)C(=O)O1)C2 (stereo not shown) [Example 184, 6-[5-[2-[[3-(azetidin-3-ylmethoxy)-1,4-dimethyl-6,7-dihydro-5H-cyclopenta[c]pyridin-6-yl]methylamino]ethyl]-2-oxo-1,3-oxazolidin-3-yl]-4H-pyrido[3,2-b][1,4]oxazin-3-one hydrochloride] | 425
9 | N#Cc1cccc2c1CC(N[C@H]1C[C@H](C3CN(c4ccc5c(n4)NC(=O)CO5)C(=O)O3)C1)C2 (stereo partly drawn) [Example 14, 2-[[trans-3-[2-oxo-3-(3-oxo-4H-pyrido[3,2-b][1,4]oxazin-6-yl)-1,3-oxazolidin-5-yl]cyclobutyl]amino]-2,3-dihydro-1H-indene-4-carbonitrile] | 415

Next, values leading:

Row | IC50 [nM] | Compound
10 | 840 | O=C1COc2ccc(N3CC([C@H]4C[C@@H](NC5Cc6cccc(Cl)c6C5)C4)OC3=O)nc2N1 (stereo partly drawn) [Example 16, 6-[5-[cis-3-[(4-chloro-2,3-dihydro-1H-inden-2-yl)amino]cyclobutyl]-2-oxo-1,3-oxazolidin-3-yl]-4H-pyrido[3,2-b][1,4]oxazin-3-one; formic acid]
11 | < 97.7 | N#Cc1cc(OCCN)cc2c1CC(CNCCC1CN(c3ccc4c(n3)NC(=O)CO4)C(=O)O1)C2 (stereo not shown) [Example 188, 6-(2-aminoethoxy)-2-[[2-[2-oxo-3-(3-oxo-4H-pyrido[3,2-b][1,4]oxazin-6-yl)-1,3-oxazolidin-5-yl]ethylamino]methyl]-2,3-dihydro-1H-indene-4-carbonitrile]
12 | 468 | Cc1nc2c(c3c1CC(CNCCC1CN(c4ccc5c(n4)NC(=O)CO5)C(=O)O1)C3)CCN2 (stereo not shown) [Example 423, 6-[5-[2-[(8-Methyl-5,7-diazatricyclo[7.3.0.0^2.6]dodeca-1,6,8-trien-11-yl)methylamino]ethyl]-2-oxo-1,3-oxazolidin-3-yl]-4H-pyrido[3,2-b][1,4]oxazin-3-one]
13 | < 97.7 | CNC(=O)COc1cc(F)c2c(c1F)CC(CNCCC1CN(c3cnc4c(n3)NC(=O)CO4)C(=O)O1)C2 (stereo not shown) [Example 393, 2-[[4,7-difluoro-2-[[2-[2-oxo-3-(3-oxo-4H-pyrazino[2,3-b][1,4]oxazin-6-yl)-1,3-oxazolidin-5-yl]ethylamino]methyl]-2,3-dihydro-1H-inden-5-yl]oxy]-N-methylacetamide]
14 | 155 | Cc1ncc(F)c2c1CC(NCCCC1CN(c3ccc4c(n3)NC(=O)CO4)C(=O)O1)C2 (stereo not shown) [Example 78, 6-[5-[3-[(4-fluoro-1-methyl-6,7-dihydro-5H-cyclopenta[c]pyridin-6-yl)amino]propyl]-2-oxo-1,3-oxazolidin-3-yl]-4H-pyrido[3,2-b][1,4]oxazin-3-one]
15 | 170 | NC(CN1CC2(C1)CN(c1ccc3c(n1)NC(=O)CO3)C(=O)O2)C1Cc2cccc(Cl)c2C1 (stereo not shown) [Example 159, 6-[2-[2-amino-2-(4-chloro-2,3-dihydro-1H-inden-2-yl)ethyl]-6-oxo-5-oxa-2,7-diazaspiro[3.4]octan-7-yl]-4H-pyrido[3,2-b][1,4]oxazin-3-one; formic acid]
16 | 260 | NCCOc1cc2c(c(Cl)n1)CC(CNCCC1CN(c3ccc4c(n3)NC(=O)CO4)C(=O)O1)C2 (stereo not shown) [Example 126, 6-[5-[2-[[3-(2-aminoethoxy)-1-chloro-6,7-dihydro-5H-cyclopenta[c]pyridin-6-yl]methylamino]ethyl]-2-oxo-1,3-oxazolidin-3-yl]-4H-pyrido[3,2-b][1,4]oxazin-3-one]

Same assay, conditions: strain Escherichia coli ATCC 25922; 10-point broth dilution, optical density at 600 nm over 16 h; read-out: Escherichia coli growth inhibition IC50

Row | IC50 [nM] | Compound
17 | 289 | Cc1ncc(F)c2c1CC(CN1CCC3(CN(c4ccc5c(n4)NC(=O)CO5)C(=O)O3)C(CN)C1)C2 (racemic) [Example 250, 6-[rac-5,6-trans-6-(Aminomethyl)-8-[(4-fluoro-1-methyl-6,7-dihydro-5H-cyclopenta[c]pyridin-6-yl)methyl]-2-oxo-1-oxa-3,8-diazaspiro[4.5]decan-3-yl]-4H-pyrido[3,2-b][1,4]oxazin-3-one]
18 | 195 | Cc1nccc2c1CC(NCCCc1cn(-c3cnc4c(n3)NC(=O)CO4)c(=O)o1)C2 (single isomer, unassigned; enantiomer b) [Example 370, 6-[5-[3-[(1-Methyl-6,7-dihydro-5H-cyclopenta[c]pyridin-6-yl)amino]propyl]-2-oxo-1,3-oxazol-3-yl]-4H-pyrazino[2,3-b][1,4]oxazin-3-one; formic acid, Enantiomer B]
19 | 509 | N#Cc1cccc2c1CC(NC1CCC3(CN(c4ccc5c(n4)NC(=O)CO5)C(=O)O3)C(N)C1)C2 (racemic) [Example 241, 2-[[rac-5,6-trans-5,8-cis-6-Amino-2-oxo-3-(3-oxo-4H-pyrido[3,2-b][1,4]oxazin-6-yl)-1-oxa-3-azaspiro[4.5]decan-8-yl]amino]-2,3-dihydro-1H-indene-4-carbonitrile; formic acid]
